Assay: Phase I clinical trial: treatment-emergent adverse events (patients, n (%)), dose limiting toxicity, MTD
Type: in vivo
Protocol: Safety, maximum tolerated dose (MTD), pharmacokinetics (PK) and preliminary antitumor activity were evaluated.
Pharmacodynamic (PD) endpoints were evaluated in surrogate (peripheral blood cells [PBCs], skin) and tumor tissues for the phosphorylation of TORC1-dependent markers (4EBP1/S6), and TORC2-dependent markers (AKT/PRAS40).

## CC(C)n1nc(-c2ccc3oc(N)nc3c2)c2c(N)ncnc21 [compound A]
7 mg/week (N = 3)
  Oral discomfort: 0 (0%)
  Patients Reporting at Least One Related TEAE: 3
  Pruritus: 0 (0%)
  RASH: 0 (0%)
  Rash: 0 (0%)
  Vomiting: 2 (67%)
  WEAKNESS: 0 (0%)
9 mg/3 W, QDx3d QW (N = 5)
  Alanine aminotransferase increased: 0 (0%)
  Asthenia: 1 (20%)
  Catheter site inflammation: 0 (0%)
  Catheter site pain: 0 (0%)
  Decreased appetite: 0 (0%)
  Diarrhoea: 1 (20%)
  Dry skin: 1 (20%)
  Dysgeusia: 0 (0%)
  Dyspnoea: 1 (20%)
  Fatigue: 0 (0%)
  Headache: 0 (0%)
  Hyperbilirubinaemia: 0 (0%)
  Hypercholesterolaemia: 1 (20%)
  Hyperglycaemia: 1 (20%)
  Hypertransaminasaemia: 1 (20%)
  Hypertriglyceridaemia: 1 (20%)
  Hypomagnesaemia: 1 (20%)
  Hypotension: 1 (20%)
  Low fever: 0 (0%)
  Lymphopenia: 1 (20%)
  Mucosal inflammation: 2 (40%)
  Nausea: 2 (40%)
  Palmar-plantar erythrodysaesthesia syndrome: 1 (20%)
  Patients Reporting at Least One Related TEAE: 4 (80%)
  Platelet count decreased: 0 (0%)
  Pruritus: 2 (40%)
  Pyrexia: 0 (0%)
  Rash: 3 (60%)
  Rash macular: 0 (0%)
  Urinary tract infection: 1 (20%)
  Vomiting: 2 (40%)
9 mg/3 W, QDx3d QW (N = 5), 2nd Asthenia line
  Asthenia: 0 (0%)
10 mg/5 W, QDx5d QW (N = 3)
  Diarrhoea: 0 (0%)
  Patients Reporting at Least One Related TEAE: 1 (33%)
  Rash: 0 (0%)
  Urine tract infection: 1 (33%)
  Vomiting: 1 (33%)
10 mg/5 W, QDx5d QW (N = 3), 1st Nausea line
  Nausea: 1 (33%)
10 mg/5 W, QDx5d QW (N = 3), 2nd Nausea line
  Nausea: 0 (0%)
10 mg/week (N = 3)
  ASTHENIA: 0 (0%)
  ATHENIA: 0 (0%)
  Alanine aminotransferase increased: 0 (0%)
  Aspartate aminotransferase increased: 1 (33%)
  Asthenia: 0 (0%)
  Blood creatinine increased: 0 (0%)
  Blood triglycerides increased: 0 (0%)
  DIARRHEA: 0 (0%)
  Decreased appetite: 0 (0%)
  Diarrhoea: 0 (0%)
  Dysgeusia: 0 (0%)
  Dyspepsia: 0 (0%)
  HYPERGLYCEMIA: 0 (0%)
  Hyperglycaemia: 1 (33%)
  Lymphopenia: 0 (0%)
  Malaise: 0 (0%)
  Mucosal inflammation: 0(0%)
  Muscle spasms: 0 (0%)
  Nausea: 2 (67%)
  Oral discomfort: 1 (33%)
  Patients Reporting at Least One Related TEAE: 2 (67%)
  Pruritus: 0 (0%)
  RASH: 0 (0%)
  Rash: 0 (0%)
  Vomiting: 1 (33%)
  WEAKNESS: 0 (0%)
12 mg/3 W, QDx3d QW (N = 3)
  Alanine aminotransferase increased: 0 (0%)
  Asthenia: 1 (33%)
  Catheter site inflammation: 1 (33%)
  Catheter site pain: 1 (33%)
  Decreased appetite: 1 (33%)
  Diarrhoea: 0 (0%)
  Dry skin: 0 (0%)
  Dysgeusia: 1 (33%)
  Dyspnoea: 0 (0%)
  Fatigue: 0 (0%)
  Headache: 0 (0%)
  Hyperbilirubinaemia: 0 (0%)
  Hypercholesterolaemia: 0 (0%)
  Hyperglycaemia: 2 (67%)
  Hypertransaminasaemia: 0 (0%)
  Hypertriglyceridaemia: 0 (0%)
  Hypomagnesaemia: 0 (0%)
  Hypotension: 0 (0%)
  Low fever: 0 (0%)
  Lymphopenia: 0 (0%)
  Mucosal inflammation: 1 (33%)
  Nausea: 2 (67%)
  Palmar-plantar erythrodysaesthesia syndrome: 0 (0%)
  Patients Reporting at Least One Related TEAE: 2 (67%)
  Platelet count decreased: 0 (0%)
  Pruritus: 1 (33%)
  Pyrexia: 0 (0%)
  Rash: 0 (0%)
  Rash macular: 1 (33%)
  Urinary tract infection: 0 (0%)
  Vomiting: 0 (0%)
12 mg/3 W, QDx3d QW (N = 3), 2nd Asthenia line
  Asthenia: 0 (0%)
15 mg/week (N = 3)
  ASTHENIA: 0 (0%)
  ATHENIA: 0 (0%)
  Alanine aminotransferase increased: 0 (0%)
  Aspartate aminotransferase increased: 0 (0%)
  Asthenia: 0 (0%)
  Blood creatinine increased: 1 (33%)
  Blood triglycerides increased: 1 (33%)
  DIARRHEA: 0 (0%)
  Decreased appetite: 0 (0%)
  Diarrhoea: 0 (0%)
  Dysgeusia: 0 (0%)
  Dyspepsia: 0 (0%)
  HYPERGLYCEMIA: 0 (0%)
  Hyperglycaemia: 2 (67%)
  Lymphopenia: 0 (0%)
  Malaise: 0 (0%)
  Mucosal inflammation: 0 (0%)
  Muscle spasms: 0 (0%)
  Nausea: 2 (67%)
  Oral discomfort: 0 (0%)
  Patients Reporting at Least One Related TEAE: 3
  Pruritus: 0 (0%)
  RASH: 0 (0%)
  Rash: 0 (0%)
  Vomiting: 0 (0%)
  WEAKNESS: 0 (0%)
16 mg/3 W, QDx3d QW (N = 3)
  Alanine aminotransferase increased: 0 (0%)
  Asthenia: 1 (33%)
  Catheter site inflammation: 0 (0%)
  Catheter site pain: 0 (0%)
  Decreased appetite: 0 (0%)
  Diarrhoea: 1 (33%)
  Dry skin: 0 (0%)
  Dysgeusia: 0 (0%)
  Dyspnoea: 0 (0%)
  Fatigue: 1 (33%)
  Headache: 1 (33%)
  Hyperbilirubinaemia: 0 (0%)
  Hypercholesterolaemia: 0 (0%)
  Hyperglycaemia: 2 (67%)
  Hypertransaminasaemia: 0 (0%)
  Hypertriglyceridaemia: 0 (0%)
  Hypomagnesaemia: 0 (0%)
  Hypotension: 0 (0%)
  Low fever: 1 (33%)
  Lymphopenia: 0 (0%)
  Mucosal inflammation: 2 (67%)
  Nausea: 0 (0%)
  Palmar-plantar erythrodysaesthesia syndrome: 0 (0%)
  Patients Reporting at Least One Related TEAE: 2 (67%)
  Platelet count decreased: 0 (0%)
  Pruritus: 0 (0%)
  Pyrexia: 1 (33%)
  Rash: 0 (0%)
  Rash macular: 0 (0%)
  Urinary tract infection: 0 (0%)
  Vomiting: 0 (0%)
16 mg/3 W, QDx3d QW (N = 3), 2nd Asthenia line
  Asthenia: 1 (33%)
20 mg Q3D
  Dose limiting toxicity: Muco-
20 mg/week (N = 3)
  ASTHENIA: 0 (0%)
  ATHENIA: 0 (0%)
  Alanine aminotransferase increased: 0 (0%)
  Aspartate aminotransferase increased: 0 (0%)
  Asthenia: 2 (67%)
  Blood creatinine increased: 0 (0%)
  Blood triglycerides increased: 0 (0%)
  DIARRHEA: 0 (0%)
  Decreased appetite: 1 (33%)
  Diarrhoea: 2 (67%)
  Dysgeusia: 0 (0%)
  Dyspepsia: 1 (33%)
  HYPERGLYCEMIA: 0 (0%)
  Hyperglycaemia: 1 (33%)
  Lymphopenia: 0 (0%)
  Malaise: 0 (0%)
  Mucosal inflammation: 2 (67%)
  Muscle spasms: 1 (33%)
  Nausea: 2 (67%)
  Oral discomfort: 0 (0%)
  Patients Reporting at Least One Related TEAE: 2 (67%)
  Pruritus: 1 (33%)
  RASH: 0 (0%)
  Rash: 1 (33%)
  Vomiting: 1 (33%)
  WEAKNESS: 0 (0%)
30 mg/week (N = 3)
  ASTHENIA: 1 (33%)
  ATHENIA: 1 (33%)
  Alanine aminotransferase increased: 0 (0%)
  Aspartate aminotransferase increased: 0 (0%)
  Asthenia: 0 (0%)
  Blood creatinine increased: 0 (0%)
  Blood triglycerides increased: 0 (0%)
  DIARRHEA: 1 (33%)
  Decreased appetite: 0 (0%)
  Diarrhoea: 0 (0%)
  Dysgeusia: 0 (0%)
  Dyspepsia: 0 (0%)
  HYPERGLYCEMIA: 2 (67%)
  Hyperglycaemia: 0 (0%)
  Lymphopenia: 0 (0%)
  Malaise: 1 (33%)
  Mucosal inflammation: 1 (33%)
  Muscle spasms: 0 (0%)
  Nausea: 3
  Oral discomfort: 0 (0%)
  Patients Reporting at Least One Related TEAE: 3
  Pruritus: 0 (0%)
  RASH: 1 (33%)
  Rash: 0 (0%)
  Vomiting: 1 (33%)
  WEAKNESS: 1 (33%)
40 mg QW
  Dose limiting toxicity: As-
